Measurements from patent publication US20030082135A1, “Pathway of RANTES-mediated chemokine synthesis in astrocytes and methods of use therefor” (priority 2001, published 2003).

Key:
[1] = tested on: mouse thymocytes; assay: RPA for chemokine/cytokine transcripts in thymocytes; format: cell-based; conditions: 100 ng/ml, 6 h
Description: To evaluate the cellular specificity of chemokine induction by RANTES-related chemokines, mouse thymocytes were treated with 2.5 μg/ml ConA, 100 ng/ml RANTES, or TCA4. After 6 h the cells were harvested for RNA extraction. […] Thus, the ability of RANTES-related chemokines to up-regulate chemokine/cytokine synthesis is not a generalized phenomenon in all cell types, but is specific for CNS cells such as astrocytes.

[2] = tested on: CXCR4, CX3CR1, CCR1, CCR5 transcripts in astrocytes; assay: RPA for chemokine receptor transcripts in astrocytes; format: cell-based, mouse; conditions: average, pooled results of 3-4 experiments
Description: (§1) RNA isolation and RNase protection assay (RPA). RNA was prepared as in Luo, Y., et al. 1999. J Immunol 163:3985. RNase protection assays (RPA) for chemokine message were conducted with multi-probe templates according to the manufacture's protocol (RiboQuant assay kit, BD-PharMingen, San Diego, Calif.). Gels were scanned and radioactive bands quantitated using a phosphoimager (Molecular Dynamics, Sunnyvale, Calif.). Levels of uniformly expressed housekeeping genes large ribosomal subunit protein 32-3A (L32) or glyceraldehyde-3-phosphate dehydrogenase (GAPDH), were used for normalization. The value of each chemokine receptor band divided by the value of the indicated housekeeping gene band in the same sample yielded the relative intensity. Normalized receptor expression represents the ratio of the relative intensity following treatment with chemokine versus the relative intensity of medium alone.
Treatment with the RANTES-related chemokines RANTES or eotaxin, or with TNF-α also found to down-regulate expression of CX3CR1 transcripts. In addition, CXCR4 mRNA levels were decreased, while the levels of CCR1 transcripts were elevated. In contrast, little or no regulation of CCR5 was noted. The pooled results of 3-4 experiments indicate eotaxin caused an average 60% decrease in CXCR4 (P less than 0.01) and a 70% decrease in CX3CR1 mRNA (P less than 0.02) (FIG. 8.B). The effects of RANTES stimulation were similar with an average 70 and 90% reduction in CXCR4 and CX3CR1 transcripts, respectively (P less than 0.01).

[3] = tested on: ICAM-1 and CX3CR1 on astrocytes; assay: Flow cytometric analysis of astrocyte receptor proteins; format: cell-based, mouse
Description: Flow cytometric analyses. PBS with 0.1% sodium azide was used for all washes and antibody (Ab) dilutions. Cells were pre-incubated 15 min with 0.5 μg Fc Block (BD-PharMingen) then 40 min at 4° C. with 1 μg of the appropriate Ab or matched isotype control immunoglobulin. Fluorescence-labelled cells were analyzed on a Coulter Profile II flow cytometer (Coulter, Hialeah, Fla.).
Another marker of activated astrocytes in MS and EAE lesions is the increased expression of the adhesion receptor, ICAM-1 (Lee, et al., 1999. J Immunol 165:4658-4666). Control astrocyte cultures were stained with anti-ICAM-1, and RANTES treatment further increased the levels of ICAM-1 protein expression about three-fold (mean intensity 50.2 vs. control of 16.3).
The cell surface receptor CX3CR1 was also selected for analysis since astrocyte expression of this receptor may facilitate interactions with endothelial cells and neurons that carry the membrane-tethered ligand for this receptor (Bacon, et al, 2000. J Neuroimmunol 104:92-97). Anti-CX3CR1 stained about 50% of the control astrocyte population. […] The modulation of receptor proteins peaked at 24 h; similar patterns were noted after a 48 h incubation with RANTES but the intensity levels were intermediate between the 0 and 24 h values.

[4] = tested on: astrocytes; assay: ELISA of KC, TNF-α and MCP-1 protein in astrocyte culture supernatants; format: cell-based, mouse
Description: ELISA. For production of supernatants, 2×10^4 astrocytes were cultured in 96 well plates with medium or 100 ng/ml RANTES. Supernatants were collected after the indicated times. ELISA assays for KC and MCP-1 were performed as in Luo, Y., et al. 1999. J Immunol 163:3985, and for TNF-α as in Abromson-Leeman, et al. 2001. Eur J Immunol 31:527. Protein levels were determined using recombinant KC, MCP-1, or TNF-α (R & D Systems, Minneapolis, Minn.) as standards.

[5] = tested on: primary neonatal mouse astrocyte cultures; assay: RNase protection assay (RPA) for chemokine/cytokine transcripts in astrocyte cultures; format: cell-based
Description: as §1, with “Astrocyte isolation and culture. […] RNA” for “RNA”, “RNA was prepared as in Luo, Y., et al. 1999. J Immunol 163:3985.” left out, “alone. Treatment with pharmacological inhibitors. Astrocytes were washed and resuspended in serum-and insulin-free complete medium and starved overnight. Cells were treated at 37° C. for 1 h with 100 ng/ml Pertussis toxin (PTx) before addition of RANTES or IL-1. […] The cells were harvested after a 3 h incubation with RANTES; RNA was prepared and assayed by RPA.” for “alone.”

- decrease in CX3CR1 mRNA [2]: 90%
- decrease in CXCR4 mRNA [2]: 70%
- time of peak modulation of receptor proteins ([3]; RANTES): 24 h
- increase of ICAM-1 protein expression ([3]; RANTES treatment vs control astrocytes): about three
- ICAM-1 mean intensity ([3]; RANTES treatment, control 16.3): 50.2
- CX3CR1 mean intensity ([3]; RANTES treatment, control of 6.0 as printed): 14.3
- production of chemokine transcripts by astrocytes from mice deficient for CCR1, CCR2, CCR3, or CCR5 ([5]; 100 ng/ml): specifically responded
- expression of TNF-α, RANTES, KC, MIP-1α, MIP-2, and MCP-1 transcripts ([5]; BALB/cJ neonatal astrocytes, chemokine for 6 h): up-regulated
- duration of RANTES transcription ([5]; RANTES-induced): greater than 24 h
- time after which TNF-α mRNA disappeared ([5]; RANTES-induced): 18 h
- time at which TNF-α mRNA was detected ([5]; RANTES-induced): 1.5 h
- time at which bands for RANTES and MIP-1α were visible ([5]; RANTES-induced): 3 h
- time by which MIP-1α mRNA was down regulated ([5]; RANTES-induced): ≤ 24 h
- time of transient production of IL-6 transcripts ([5]; RANTES-induced): 6 to 24 h
- transcripts for the chemokine TCA3 ([5]; RANTES-induced, any time point): not detected
- time at which RANTES and IL-6 transcripts appear ([5]; after RANTES stimulation): 4 to 8 h
- time at which TNF-α, KC, and MIP-2 transcripts were detected ([5]; after RANTES stimulation): 60 to 90 min
- time at which bands for MIP-1α and MCP-1 became visible ([5]; after RANTES stimulation): 2 h
- expression of TNF-α, RANTES, KC, IL-6, MIP-1α, MIP-2, and MCP-1 transcripts ([5]; astrocytes treated with RANTES, time course): up-regulated
- concentration yielding optimal stimulation of transcripts ([5]; preliminary experiments): 100 ng/mL
Substance: RANTES
- RANTES and TNF-α RNA levels in thymocytes [1]: not to ber further enhanced
- cells stained with anti-CX3CR1 ([3]; after RANTES, control about 50%): less than 30%
- time at which KC protein reached a plateau ([4]; 100 ng/ml RANTES): 1 days
- time at which KC protein synthesis was detectable ([4]; 100 ng/ml RANTES): ≤ 8 h
- time at which KC protein was detected ([4]; 100 ng/ml RANTES): 12 h
- KC protein concentration in supernatant ([4]; 100 ng/ml RANTES, after 16 h): 20 to 30 ng/mL
- TNF-α protein level in supernatant ([4]; 100 ng/ml RANTES, after 16 h): less than 120 pg/ml
- TNF-α protein in culture supernatants ([4]; 6 h after RANTES stimulation): not detectable
- TNF-α protein in culture supernatants ([4]; 12 h after RANTES stimulation): greater than 100 pg/ml
- time of peak TNF-α protein levels ([4]; RANTES stimulation): 24 h
- ability to induce chemokine transcripts after boiling ([5]; boiled for 30 min before incubation with astrocytes): completely destroyed
